Laboratory results: ChEMBL document CHEMBL1201862, “PubChem BioAssay data set” (2004)
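These data come from cells grown in 96-well plates and exposed to compound for 48 hours at five concentrations. At the GI50, growth is halved.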 The source made the active and inactive calls. No stated cut-off is given here; in the data, active = GI50 up to about 1.1 µM and inactive = higher.

Columns and labels:
Assay in all cases: NCI anticancer screen, dose series, 48 h
[1] = test system: A498
[2] = test system: ACHN
[3] = test system: COLO 205
[4] = test system: HCC 2998
[5] = test system: HCT-116
[6] = test system: HOP-92
[7] = test system: NCI-H226
[8] = test system: NCI-H23
[9] = test system: OVCAR-4
[10] = test system: RXF 393
[11] = test system: SK-MEL-2
[12] = test system: SK-MEL-5
[13] = test system: SK-OV-3
[14] = test system: SN12C
[15] = test system: UACC-257
[16] = test system: UACC-62
[17] = test system: UO-31

Measured: GI50

O=c1[nH]cnc2c1nnn2C1C=C(CO)C(O)C1O (stereo not drawn)
inactive: [1] > 100 µM | [2] > 100 µM | [3] > 100 µM | [4] > 100 µM | [5] 53.7 µM | [6] > 100 µM | [7] > 100 µM | [8] > 100 µM | [9] > 100 µM | [10] > 100 µM | [11] > 100 µM | [12] > 100 µM | [13] > 100 µM | [14] > 100 µM | [15] > 100 µM | [16] > 100 µM | [17] > 100 µM

O=c1ncccn1[C@@H]1O[C@H](CO)[C@@H](O)[C@@H]1F
inactive: [1] > 100 µM | [2] > 100 µM | [3] > 100 µM | [4] > 100 µM | [6] > 100 µM | [7] > 100 µM | [8] > 100 µM | [9] > 100 µM | [10] > 100 µM | [11] > 100 µM | [12] > 100 µM | [13] > 100 µM | [14] > 100 µM | [15] > 100 µM

COc1cc2c(cc1OC)[C@H]1C(COC(=O)c3ccccc3)CS/C(=N/c3ccccc3)N1CC2 (stereo partly drawn)
inactive: [1] 48.9 µM | [2] > 100 µM | [3] > 100 µM | [4] > 100 µM | [5] 5.68 µM | [6] 8.17 µM | [7] 36.3 µM | [8] 5.9 µM | [9] 5.15 µM | [10] 13.3 µM | [11] 3.21 µM | [12] > 100 µM | [13] > 100 µM | [14] > 100 µM | [15] > 100 µM | [16] > 100 µM | [17] 24.5 µM

C=CC1(C(=O)O)CCC(C(C)(C)C)CC1 (stereo not drawn)
inactive: [1] > 100 µM | [2] > 100 µM | [3] > 100 µM | [4] > 100 µM | [5] > 100 µM | [6] > 100 µM | [7] > 100 µM | [8] > 100 µM | [9] > 100 µM | [10] > 100 µM | [11] > 100 µM | [12] > 100 µM | [13] > 100 µM | [14] > 100 µM | [15] > 100 µM | [16] > 100 µM | [17] > 100 µM

COc1cc(/C=C2\NC(=S)C3Cc4c(OC)c(C)c(OC)c(OC)c4C2N3C)c(OC)c(C)c1OC (stereo not drawn)
inactive: [1] 63.5 µM | [2] 48.2 µM | [3] 16.5 µM | [4] 69 µM | [5] 33.7 µM | [6] 9.38 µM | [7] 22.6 µM | [8] 86.1 µM | [9] > 100 µM | [10] 24.7 µM | [11] 36.2 µM | [12] 24.5 µM | [13] > 100 µM | [14] > 100 µM | [15] 22.2 µM | [16] 98.4 µM | [17] 21.2 µM

C[C@@H]1C[C@@H]2C(=O)N(c3ccccc3)C(=O)[C@@H]2c2[nH]c3ccc(Br)cc3c21
inactive: [1] 68.4 µM | [2] 45.1 µM | [3] > 100 µM | [4] 51.1 µM | [5] 30.2 µM | [6] 27.6 µM | [8] 89.7 µM | [9] 21.2 µM | [10] 43.4 µM | [11] 55.3 µM | [12] 50.1 µM | [13] 22.3 µM | [14] 41 µM | [15] > 100 µM | [16] 84.7 µM | [17] 45.9 µM

COc1ccc(C(=O)O/N=C2/CCCCC2CN(C)C)cc1 (stereo not drawn)
inactive: [1] > 100 µM | [2] > 100 µM | [3] > 100 µM | [4] > 100 µM | [5] > 100 µM | [6] > 100 µM | [7] > 100 µM | [8] > 100 µM | [9] > 100 µM | [10] > 100 µM | [11] > 100 µM | [12] > 100 µM | [13] > 100 µM | [14] > 100 µM | [15] > 100 µM | [16] > 100 µM | [17] > 100 µM

NC(=O)/C(=N\NC(=O)C[n+]1ccccc1)C1NC(=O)NC1=O (stereo not drawn)
inactive: [1] > 100 µM | [2] > 100 µM | [3] 32.7 µM | [4] > 100 µM | [5] > 100 µM | [6] > 100 µM | [7] > 100 µM | [8] > 100 µM | [9] > 100 µM | [10] > 100 µM | [11] > 100 µM | [12] > 100 µM | [13] > 100 µM | [14] > 100 µM | [15] > 100 µM | [16] > 100 µM | [17] > 100 µM

C[C@]12CCC3[C@@H](CC[C@@H]4c5nonc5CC[C@]34C)C1CC[C@@H]2O (stereo partly drawn)
inactive: [1] 25.2 µM | [2] 23.6 µM | [3] 30.4 µM | [4] 31.8 µM | [6] 23 µM | [7] 38.3 µM | [8] 32.1 µM | [9] 27.3 µM | [10] 24.8 µM | [11] 22.6 µM | [12] 18.4 µM | [13] 30.5 µM | [14] 22.1 µM | [15] 19.8 µM | [16] 30.9 µM | [17] > 10 µM
